Laboratory results reported in US9255257B2, “PmST1 mutants for chemoenzymatic synthesis of sialyl lewis X compounds” (THE REGENTS OF THE UNIVERSITY OF CALIFORNIA, priority 2011, dated 2016).

What was measured:
Assay type in all cases: biochemical
[1] = molecular target: T1, Pasteurella multocida PmST1 mutant M144D of SEQ ID NO: 13 (M120D of Δ24PmST1, SEQ ID NO: 3) (Pasteurella multocida, UniProt Q15KI8, M144D); assay: α2-3-sialyltransferase activity, LacβMU as acceptor; conditions: apparent, donor, LacβMU 1 mM, Tris-HCl pH 8.5, 37° C.
Method: (§1) Site-directed mutagenesis, expression and purification of PmST1 mutants. Site-directed mutagenesis was performed using the QuikChange multi-site-directed mutagenesis kit from Stratagene according to the manufacturer's protocol. The primers used were 5′-[…]-3′ (SEQ ID NO:35) for M144D; 5′-[…]a[…] -3′ (SEQ ID NO:36) for M144H; 5′-[…]-3′ (SEQ ID NO:37) for A35D; and 5′-[…]-3′ (SEQ ID NO:38) for A35H. The expression and purification of the mutants were performed as previously described for the WT PmST1 .
(§2) Kinetics of the α2-3-sialyltransferase activity of PmST1 mutants by HPLC analysis. With LacβMU as the acceptor substrate, the reactions were performed in duplicate at 37° C. for 10 min (M144D) or 4 min (M144H) in a reaction mixture (10 μL) containing Tris-HCl (100 mM, pH 8.5), an enzyme (5 μg mL^−1), and different concentrations (0.2, 0.5, 1.0, 2.0, and 5.0 mM) of LacβMU with a fixed concentration (1 mM) of CMP-Neu5Ac or different concentrations (0.2, 0.5, 1.0, 2.0, 5.0, and 10.0 mM) of CMP-Neu5Ac with a fixed concentration (1 mM) of LacβMU. With Le^xβMU as the acceptor substrate, the reactions were carried out in duplicate at 37° C. for 9 min (M144D) or 10 min (M144H) in a reaction mixture (10 μL) containing CAPSO (100 mM, pH 9.5), an enzyme (M144D, 39 μg mL^−1 or M144H, 5 μg mL^−), and various concentrations of Le^xβMU (1.0, 5.0, 10.0, 15.0, 25.0, and 35.0 mM) with a fixed concentration (1 mM) of CMP-Neu5Ac or various concentrations (0.2, 0.5, 1.0, 2.0, 5.0, 10.0, 20.0, and 40.0 mM) of CMP-Neu5Ac with a fixed concentration (1 mM) of Le^xβMU. Reactions were stopped by adding 10 μL of pre-chilled ethanol. The mixtures were incubated on ice for 30 min and centrifuged at 13,000 rpm for 5 min. The supernatants were diluted with 25% acetonitrile and kept on ice until aliquots of 8 μL were injected and analyzed by the Shimadzu LC-6AD system equipped with a membrane on-line degasser, a temperature control unit, and a fluorescence detector (Shimadzu RF-10AXL). A reverse-phase Premier C18 column (250×4.6 mm i.d., 5 μm particle size, Shimadzu) protected with a C18 guard column cartridge was used. The mobile phase was 25% acetonitrile. The fluorophore (MU)-labeled compounds were detected by excitation at 325 nm and emission at 372 nm. The apparent kinetic parameters were obtained by fitting the experimental data (the average values of duplicate assay results) into the Michaelis-Menten equation using Grafit 5.0.

[2] = molecular target: T2, Pasteurella multocida PmST1 mutant M144H of SEQ ID NO: 13 (M120H of Δ24PmST1, SEQ ID NO: 5) (Pasteurella multocida, UniProt Q15KI8, M144H); assay: as above; conditions: apparent, donor, LacβMU 1 mM, Tris-HCl pH 8.5, 37° C.
Method: as §1, §2

[3] = molecular target: T1, Pasteurella multocida PmST1 mutant M144D of SEQ ID NO: 13 (M120D of Δ24PmST1, SEQ ID NO: 3); assay: α2-3-sialyltransferase activity, Le^xβMU as acceptor; conditions: apparent, donor, Le^xβMU 1 mM, CAPSO pH 9.5, 37° C.
Method: as §1, §2

[4] = molecular target: T2, Pasteurella multocida PmST1 mutant M144H of SEQ ID NO: 13 (M120H of Δ24PmST1, SEQ ID NO: 5); assay: as above; conditions: apparent, donor, Le^xβMU 1 mM, CAPSO pH 9.5, 37° C.
Method: as §1, §2

[5] = molecular target: T1, Pasteurella multocida PmST1 mutant M144D of SEQ ID NO: 13 (M120D of Δ24PmST1, SEQ ID NO: 3); assay: CMP-Neu5Ac (donor) hydrolysis activity, capillary electrophoresis; conditions: apparent, Tris-HCl pH 8.5, 37° C., 15 min
Method: as §1
(§3) Kinetics of the donor hydrolysis activity of PmST1 and mutants by capillary electrophoresis analysis. […] The reactions were stopped by adding 10 μL of pre-chilled ethanol. The mixtures were incubated on ice for 30 min and centrifuged at 13,000 rpm for 5 min. The supernatants were diluted with borate buffer (25 mM, pH 9.5) and aliquotes of 5 μL each were injected to a Beckman Coulter P/ACE™ MDQ Capillary Electrophoresis system equipped with a capillary (60 cm×75 μm i.d.) and monitored at 254 nm. The apparent kinetic parameters were obtained by fitting the experimental data (the average values of duplicate assay results) into the Michaelis-Menten equation using Grafit 5.0.

[6] = molecular target: T2, Pasteurella multocida PmST1 mutant M144H of SEQ ID NO: 13 (M120H of Δ24PmST1, SEQ ID NO: 5); assay: as above; conditions: apparent, Tris-HCl pH 8.5, 37° C., 15 min
Method: as §1, §3

## CC(=O)N[C@H]1[C@H]([C@H](O)[C@H](O)CO)O[C@](OP(=O)(O)OC[C@H]2O[C@@H](n3ccc(N)nc3=O)[C@H](O)[C@@H]2O)(C(=O)O)C[C@@H]1O [CMP-Neu5Ac]
[1]
  kcat (CMP-Neu5Ac): 1.9 ± 0.1 s⁻¹
[2]
  kcat (CMP-Neu5Ac): 21 ± 1 s⁻¹
[3]
  kcat (CMP-Neu5Ac): 0.59 ± 0.01 s⁻¹
[4]
  kcat (CMP-Neu5Ac): 0.93 ± 0.02 s⁻¹
[5]
  kcat: 6.5 ± 0.1 s⁻¹
[6]
  kcat: 71 ± 6 s⁻¹
